US7071293B1, “Alpha helical peptides with broad spectrum antimicrobial activity that are insensitive to salt” (priority 1999, dated 2006)
Like-named read-outs stand apart in the source and are kept apart here. Ends that are not written are not given here.

Assays:
[1] = tested on: MRSA ATCC 33591; settings: ATCC 33591
[2] = tested on: N. gonorrhoeae; experiment: Two stage radial diffusion assay (MIC); assay type: cell-based; parameters: unit not given here; settings: done only at 100 mM NaCl; for N. gonorrhoeae F 62 (serum-sensitive): strain F 62 (serum-sensitive); for N. gonorrhoeae FA 19 (serum-resistant): strain FA 19 (serum-resistant)
[3] = tested on: E. coli ML-35p; settings: Table 15; for E. coli ML-35p MIC, 0 mM NaCl: underlay 0 mM NaCl; for E. coli ML-35p MIC, 175 mM NaCl: underlay 175 mM NaCl
[4] = tested on: S. aureus 930918-3; settings: 930918-3
[5] = tested on: B. cepacia ATCC 25416; experiment: Two stage radial diffusion assay (MIC); assay type: cell-based; parameters: unit not given here; settings: underlay 0 mM NaCl
[6] = tested on: P. aeruginosa MR 3007; settings: MR 3007
[7] = tested on: L. monocytogenes EGD; experiment: Two stage radial diffusion assay (MIC); assay type: cell-based; parameters: unit not given here; settings: underlay 0 mM NaCl
[8] = tested on: P. aeruginosa PA-01
[9] = tested on: E. coli DH-5α

| Substance | MRSA ATCC 33591 MIC, 0 mM NaCl [1] [µg/mL] | N. gonorrhoeae F 62 (serum-sensitive) [2] | N. gonorrhoeae FA 19 (serum-resistant) [2] | E. coli ML-35p MIC, 0 mM NaCl [3] [µg/mL] | S. aureus 930918-3 MIC, 0 mM NaCl [4] [µg/mL] | B. cepacia ATCC 25416 in underlays of low, normal and high salinity, 0 mM NaCl [5] | P. aeruginosa MR-3007 MIC, 0 mM NaCl [6] [µg/mL] | L. monocytogenes in underlays of low, normal and high salinity, 0 mM NaCl [7] | MRSA ATCC 33591 MIC, 175 mM NaCl [1] [µg/mL] | E. coli ML-35p MIC, 175 mM NaCl [3] [µg/mL] | S. aureus 930918-3 MIC, 175 mM NaCl [4] [µg/mL] | P. aeruginosa PA-01 MIC, 0 mM NaCl [8] [µg/mL] | P. aeruginosa PA-01 MIC, 175 mM NaCl [8] [µg/mL] | E. coli DH-5α MIC, 0 mM NaCl ([9]; DH-5α) [µg/mL] | E. coli DH-5α MIC, 175 mM NaCl ([9]; DH-5α) [µg/mL] | P. aeruginosa MR-3007 MIC, 175 mM NaCl [6] [µg/mL] | E. coli DH-5α MIC, 0 mM NaCl ([9]; underlay 0 mM NaCl) [µg/mL] |
| --- | --- | --- | --- | --- | --- | --- | --- | --- | --- | --- | --- | --- | --- | --- | --- | --- | --- |
| LRKFRNKIKEKLKKIGQKIQG [Peptide 23] | 10.3 | >79.1 | >250 | 0.2 | 16.3 | >250 | 1.5 | 5.5 | – | – | – | – | – | – | – | – | – |
| RRIIRKIIHIIK-NH2 [Peptide 17] | 11.9 ± 4.7 | – | – | 0.29 ± 0.06 | 2.29 ± 0.07 | – | 0.72 ± 0.15 | – | >79.1 | >79.1 | >79.1 | 0.69 ± 0.08 | 17.2 ± 4.6 | 0.51 ± 0.09 | 46.1 ± 16.1 | >79.1 | – |
| GLRKRLRKFRNKIKEKLKKIG [Peptide 19] | 19.4 | 0.6 | >79.1 | 2.3 | 1.8 | >250 | 0.7 | 0.3 | – | – | – | – | – | – | – | – | – |
| RKFRNKIKEKLKKIG [Peptide 24] | >250 | >250 | >250 | 9.7 | 19.5 | >250 | 5.1 | 24.1 | – | – | – | – | – | – | – | – | – |
| LRKFRNKIKEKLKKIGQKI [Peptide 22] | 4.5 | >79.1 | >250 | 0.1 | 6.0 | >250 | 0.7 | 5.9 | – | – | – | – | – | – | – | – | – |
| KNLRRIIRKIIHIIKKYGPTILRIIRIIG-NH2 [Peptide 28] | 0.32 ± 0.04 | 0.1 | 0.1 | 0.16 ± 0.03 | 0.55 ± 0.17 | 17.0 | 0.34 ± 0.22 | 0.4 | 1.57 ± 0.30 | 0.58 ± 0.12 | 1.14 ± 0.23 | 0.53 ± 0.14 | 1.17 ± 0.23 | – | 0.40 ± 0.09 | 0.49 ± 0.06 | 0.0042 |
| KIKEKLKKIGQKIQGLL [Peptide 26] | >250 | >79.1 | >250 | 0.4 | >250 | >250 | 1.0 | 5.7 | – | – | – | – | – | – | – | – | – |
